Data taken from ChEMBL document CHEMBL3804762, “Novel indoleflutimide heterocycles with activity against influenza PA endonuclease and hepatitis C virus” (Medchemcomm, 2016).
Active and inactive are the calls of the source. The rule behind the calls is not given here.

Legend:
[1] = target: Polymerase acidic protein (Influenza A virus (A/Puerto Rico/8/1934(H1N1)), UniProt P03433); assay: Inhibition of Influenza A/PR/8/34 virus PA endonuclease by cap dependent RNA polymerase assay
[2] = Cytotoxicity against human Huh5-2 cells assessed as cell viability after 72 hrs by Alamar blue dye based colorimetric analysis; parameters: species or system Huh-5-2; conditions: read-out: LC50
Hepatitis C virus [3] = assay: Antiviral activity against HCV Con1 infected in human Huh5-2 cells haboring firefly luciferase expressing subgenomic replicon of HCV genotype 1b after 72 hrs by luciferase reporter gene assay; assay type: functional, organism-based, Hepacivirus hominis; conditions: isolate Con1, Huh-5-2, 72 h
[4] = Dissociation constant, pKa of compound; assay type: physicochemical
[5] = Lipophilicity, log D of compound; assay type: physicochemical; conditions: octanol/water
[6] = target: T1, Polymerase acidic protein (Influenza A virus (strain A/X-31 H3N2), UniProt Q9IQ47); assay: Inhibition of recombinant Influenza A/X-31 virus PA (N-terminal amino acid residue 1-217) transfected in Escherichia coli assessed as endonucleolytic digestion using single-stranded circular DNA plasmid M13mp18 after 2 hrs by ethidium bromide staining based agarose gel electrophoresis; parameters: species or system Influenza A virus (A/X-31(H3N2))
[7] = target: T1, Polymerase acidic protein; assay: Inhibition of recombinant Influenza A/X-31 virus PA infected in HEK293T cells after 2 hrs by vRNP reconstitution assay; assay type: cell-based, Influenza A virus (A/X-31(H3N2)), HEK-293T
[8] = Cytotoxicity against HEK293T cells assessed as effect on cell morphology after 24 hrs by microscopic analysis; assay type: cell-based, HEK-293T; conditions: human
[9] = Selectivity index, ratio of LC50 for human Huh5-2 cells to EC50 for HCV Con1 infected in human Huh5-2 cells haboring firefly luciferase expressing subgenomic replicon of HCV genotype 1b; parameters: species or system Huh-5-2
[10] = target: T2, Nonstructural protein 5A (Hepatitis C virus) (UniProt Q5L478); assay: Inhibition of HCV NS5A in Huh5-2 replicon cells at 100 uM propidium iodide staining based confocal microscopic analysis; assay type: cell-based; conditions: Hepacivirus hominis
T2 sequence (whole entry): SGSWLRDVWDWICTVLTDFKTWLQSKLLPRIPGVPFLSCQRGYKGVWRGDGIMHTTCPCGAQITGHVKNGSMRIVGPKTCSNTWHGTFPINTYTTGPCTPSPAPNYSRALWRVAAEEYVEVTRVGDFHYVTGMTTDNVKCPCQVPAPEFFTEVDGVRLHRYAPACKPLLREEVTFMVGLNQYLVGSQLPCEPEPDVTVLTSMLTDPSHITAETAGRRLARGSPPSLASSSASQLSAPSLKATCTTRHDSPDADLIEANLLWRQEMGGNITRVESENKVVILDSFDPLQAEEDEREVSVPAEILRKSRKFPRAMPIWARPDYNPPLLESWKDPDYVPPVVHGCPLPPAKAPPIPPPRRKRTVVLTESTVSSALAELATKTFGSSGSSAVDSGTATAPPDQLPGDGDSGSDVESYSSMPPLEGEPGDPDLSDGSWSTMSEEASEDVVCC

Hepatitis C virus [11] = assay: Antiviral activity against HCV Con1 infected in human Huh5-2 cells haboring firefly luciferase expressing subgenomic replicon of HCV genotype 1b at 100 uM after 7 days by luciferase reporter gene assay; assay type: functional, organism-based; conditions: Hepacivirus hominis, isolate Con1, Huh-5-2

Which IC50 [1] does the source give for `O=C1Cc2ccccc2CC(=O)N1O` here?
Its IC50 is greater than 500 µM.

Which CC50 at 72 h [2] does the source give for `O=C1Cn2c(cc3ccccc32)C(=O)N1` here?
The CC50 at 72 h was greater than 200 µM.

What about the EC50 (Hepatitis C virus [3]) of the same molecule?
The EC50 was greater than 200 µM.

And the pKa [4]?
The pKa was 9.3.

And the logD [5]?
The logD was 0.75.

And the IC50 [6]?
Its IC50 is greater than 500 µM.

For `O=C1Cn2c(cc3cc(F)ccc32)C(=O)N1O`, which CC50 at 72 h [2] is on record?
The CC50 at 72 h was greater than 200 µM.

And the EC50 (Hepatitis C virus [3])?
Its EC50 is 83.8 µM.

And the pKa [4]?
The pKa was 7.27.

And the EC50 [7]?
The EC50 was greater than 500 µM.

And the logD [5]?
The logD was 0.71.

What about the MCC at 24 h [8] of the same molecule?
Its MCC at 24 h is no less than 500 µM.

What about the “Selectivity Index” value [9] of the same molecule?
Its value is greater than 2.4.

What about the IC50 [6] of the same molecule?
The IC50 was 17.3 µM.

With `O=C1Cn2c(cc3cc(Cl)ccc32)C(=O)N1O` as the molecule, how does the inhibition [10] read?
The inhibition was “Active”.

And the Activity (Hepatitis C virus [11])?
Its Activity is “inactive”.

And the CC50 at 72 h [2]?
The CC50 at 72 h was greater than 200 µM.

What about the EC50 (Hepatitis C virus [3]) of the same molecule?
The EC50 was 10.5 µM.

What about the pKa [4] of the same molecule?
Its pKa is 7.27.

And the EC50 [7]?
The EC50 was 114 µM.

What about the logD [5] of the same molecule?
The logD was 1.17.

What about the MCC at 24 h [8] of the same molecule?
The MCC at 24 h was no less than 500 µM.

What about the “Selectivity Index” value [9] of the same molecule?
The value was greater than 19.1.

What about the IC50 [6] of the same molecule?
Its IC50 is 26.9 µM.

For `COc1ccc2c(c1)cc1n2CC(=O)N(O)C1=O`, which CC50 at 72 h [2] is on record?
The CC50 at 72 h was greater than 200 µM.

What about the EC50 (Hepatitis C virus [3]) of the same molecule?
Its EC50 is greater than 200 µM.

And the pKa [4]?
Its pKa is 7.27.

And the EC50 [7]?
The EC50 was 48 µM.

And the logD [5]?
Its logD is 0.41.

What about the MCC at 24 h [8] of the same molecule?
The MCC at 24 h was no less than 500 µM.

What about the IC50 [6] of the same molecule?
Its IC50 is 23 µM.

With `O=C1Cn2c(cc3ccccc32)C(=O)N1O` as the molecule, how does the CC50 at 72 h [2] read?
The CC50 at 72 h was greater than 200 µM.

What about the EC50 (Hepatitis C virus [3]) of the same molecule?
Its EC50 is 126 µM.

And the pKa [4]?
Its pKa is 7.27.

And the EC50 [7]?
The EC50 was 297 µM.

And the logD [5]?
Its logD is 0.57.

And the MCC at 24 h [8]?
Its MCC at 24 h is no less than 500 µM.

What about the “Selectivity Index” value [9] of the same molecule?
The value was greater than 1.6.

What about the IC50 [6] of the same molecule?
The IC50 was 12.7 µM.

Which CC50 at 72 h [2] does the source give for `O=C1Cn2c(cc3cc(O)ccc32)C(=O)N1O` here?
The CC50 at 72 h was greater than 200 µM.

And the EC50 (Hepatitis C virus [3])?
The EC50 was greater than 200 µM.

And the pKa [4]?
The pKa was 7.27.

And the EC50 [7]?
The EC50 was 75 µM.

What about the logD [5] of the same molecule?
The logD was 0.26.

And the MCC at 24 h [8]?
Its MCC at 24 h is no less than 500 µM.

What about the IC50 [6] of the same molecule?
The IC50 was 29.2 µM.

What does the source list for `O=C(O)C(=O)CC(=O)c1ccccc1`?
CC50 at 72 h [2]: > 200 µM; EC50 (Hepatitis C virus [3]): > 200 µM; pKa [4]: 2.85; logD [5]: -1.73; IC50 [6]: 5.4 µM
